According to article PMC10166615 (Bioorganic & Medicinal Chemistry, 2023):

Target: SARS-CoV-2 3CLpro (Severe acute respiratory syndrome coronavirus 2, UniProt P0DTD1)
Assay: biochemical
[1] = read-out: SARS-CoV-2 3CLpro Inhibition (%)

CC(C)(C)[C@H](NC(=O)C(F)(F)F)C(=O)N1C[C@@H]2CCC[C@@H]2[C@H]1C(=O)N[C@H](C#N)C[C@@H]1CCNC1=O [1a, (1S,3aR,6aS)-N-((S)-1-cyano-2-((S)-2-oxopyrrolidin-3-yl)ethyl)-2-((S)-3,3-dimethyl-2-(2,2,2-trifluoroacetamido)butanoyl)octahydrocyclopenta[c]pyrrole-1-carboxamide]
IC50: 18.1 ± 2.35 nM | inhibition at 0.02 µM [1]: 24% | inhibition at 0.1 µM [1]: 82.5% | inhibition at 1 µM [1]: 88.9% | inhibition at 10 µM [1]: 88.3%
